In PubChem BioAssay (NCI):
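Tested at 5 concentrations; 48 h exposure; 96-well plates; endpoints linearly interpolated, else capped at highest concentration. TGI is the concentration that stops growth completely.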

Columns and labels:
Experiment in all cases: inhibition of tumour cell growth, NCI panel, 48 h
786-0 renal = tested on: 786-0 renal
HCT-15 colon = tested on: HCT-15 colon
MOLT-4 leukemia = tested on: MOLT-4 leukemia
NCI-H460 lung = tested on: NCI-H460 lung
NCI-H522 lung = tested on: NCI-H522 lung
OVCAR-4 ovarian = tested on: OVCAR-4 ovarian
SF-268 CNS = tested on: SF-268 CNS
SN12C renal = tested on: SN12C renal
SR leukemia = tested on: SR leukemia
T-47D breast = tested on: T-47D breast
TK-10 renal = tested on: TK-10 renal

In the case of C=C(C)[C@@H]1CC[C@]2(C(=O)O)CC[C@]3(C)[C@H](CC[C@@H]4[C@@]5(C)CC[C@H](C(=O)/C=C/c6ccc(O)cc6)C(C)(C)[C@@H]5CC[C@]43C)[C@@H]12, the TGI (786-0 renal) is reported as > 100 µM, the TGI (HCT-15 colon) is reported as 17.3 µM and the TGI (MOLT-4 leukemia) is reported as 51.6 µM. It also gave a TGI (NCI-H460 lung) of 17.3 µM, a TGI (NCI-H522 lung) of 39.5 µM and a TGI (OVCAR-4 ovarian) of 72.4 µM. For the same compound, the TGI (SF-268 CNS) was 94.6 µM, the TGI (SN12C renal) was 10.4 µM and the TGI (SR leukemia) was > 100 µM. The TGI (T-47D breast) was 20.7 µM and the TGI (TK-10 renal) was 20.9 µM.

CC(=O)CCC[C@@H](C)[C@@H]1O[C@H]([C@@]2(C)CCC(=O)O2)C[C@H]2C(CSc3ccccc3)C(=O)O[C@@H]12 (stereo partly drawn) gave a TGI (786-0 renal) of 42.2 µM, a TGI (HCT-15 colon) of 47.3 µM and a TGI (MOLT-4 leukemia) of 16 µM. For the same compound, the TGI (NCI-H460 lung) was > 57.5 µM, the TGI (NCI-H522 lung) was 15.2 µM and the TGI (OVCAR-4 ovarian) was 31.8 µM. The TGI (SF-268 CNS) was 55.1 µM, the TGI (SN12C renal) was 34.2 µM and the TGI (SR leukemia) was > 100 µM. For the same compound, the TGI (T-47D breast) was 38 µM and the TGI (TK-10 renal) was 25.6 µM.

For CC(=O)O[C@H]1C(=O)[C@@]2(C)[C@H]([C@H](OC(=O)C3CCCCC3)[C@]3(O)C[C@H](OC(=O)[C@H](O)[C@@H](NC(=O)C4CCCCC4)C4CCCCC4)C(C)=C1C3(C)C)[C@]1(OC(C)=O)CO[C@@H]1C[C@@H]2O, the TGI (786-0 renal) was 6.97 µM, the TGI (HCT-15 colon) was 4.42 µM and the TGI (MOLT-4 leukemia) was 4.18 µM. For the same compound, the TGI (NCI-H460 lung) was 3.87 µM, the TGI (NCI-H522 lung) was 0.136 µM and the TGI (OVCAR-4 ovarian) was 11.8 µM. For the same compound, the TGI (SF-268 CNS) was 8.14 µM, the TGI (SN12C renal) was 14.8 µM and the TGI (SR leukemia) was 9.67 µM. The TGI (T-47D breast) was 3.4 µM and the TGI (TK-10 renal) was 1.3 µM.

CCCCCc1c2nc(c(CCCCC)c3ccc([nH]3)c(CCCCC)c3ccc([nH]3)c(CCCCC)c3nc1C=C3)C=C2 was tested, and the TGI (786-0 renal) was > 100 µM, the TGI (HCT-15 colon) was > 100 µM and the TGI (MOLT-4 leukemia) was > 100 µM. For the same compound, the TGI (NCI-H460 lung) was > 100 µM, the TGI (NCI-H522 lung) was > 100 µM and the TGI (OVCAR-4 ovarian) was > 100 µM. The TGI (SF-268 CNS) was > 100 µM, the TGI (SN12C renal) was > 100 µM and the TGI (SR leukemia) was > 100 µM. The TGI (T-47D breast) was > 100 µM and the TGI (TK-10 renal) was > 100 µM.

CC1(C)C(=O)N=C(N)N1C(=O)OCc1ccccc1 was tested, and the TGI (786-0 renal) was > 100 µM, the TGI (HCT-15 colon) was > 100 µM and the TGI (MOLT-4 leukemia) was > 100 µM. The TGI (NCI-H460 lung) was > 100 µM, the TGI (NCI-H522 lung) was > 100 µM and the TGI (OVCAR-4 ovarian) was > 100 µM. The TGI (SF-268 CNS) was > 100 µM, the TGI (SN12C renal) was > 100 µM and the TGI (SR leukemia) was > 100 µM. For the same compound, the TGI (T-47D breast) was > 100 µM and the TGI (TK-10 renal) was > 100 µM.

Work on N=C1C(=N)c2ccccc2-c2ccccc21 yielded a TGI (786-0 renal) of 4.46 µM, a TGI (HCT-15 colon) of 2.99 µM and a TGI (MOLT-4 leukemia) of 1.61 µM. The TGI (NCI-H460 lung) was 2.88 µM, the TGI (NCI-H522 lung) was 3.99 µM and the TGI (OVCAR-4 ovarian) was 2.78 µM. It also gave a TGI (SF-268 CNS) of 4.16 µM, a TGI (SN12C renal) of 2.49 µM and a TGI (SR leukemia) of 6.46 µM. For the same compound, the TGI (T-47D breast) was 1.57 µM and the TGI (TK-10 renal) was 3.01 µM.

O=C1/C(=C\c2cccc(Oc3ccccc3)c2)SC(c2ccccc2)N1c1ccc(Cl)cc1 (stereo not drawn) was tested, and the TGI (786-0 renal) was > 100 µM, the TGI (HCT-15 colon) was > 100 µM and the TGI (MOLT-4 leukemia) was > 63.6 µM. For the same compound, the TGI (NCI-H460 lung) was > 100 µM, the TGI (NCI-H522 lung) was 96.9 µM and the TGI (OVCAR-4 ovarian) was > 100 µM. For the same compound, the TGI (SF-268 CNS) was > 100 µM, the TGI (SN12C renal) was > 100 µM and the TGI (SR leukemia) was > 55.9 µM. For the same compound, the TGI (T-47D breast) was > 100 µM and the TGI (TK-10 renal) was > 100 µM.

O=C(Nc1nc(C23CC4CC(CC(C4)C2)C3)cs1)c1cc2cc(Br)cc(Br)c2oc1=O was tested, and the TGI (786-0 renal) was > 100 µM, the TGI (HCT-15 colon) was > 100 µM and the TGI (MOLT-4 leukemia) was > 100 µM. For the same compound, the TGI (NCI-H460 lung) was > 100 µM, the TGI (NCI-H522 lung) was > 100 µM and the TGI (OVCAR-4 ovarian) was > 100 µM. The TGI (SF-268 CNS) was > 100 µM, the TGI (SN12C renal) was > 100 µM and the TGI (SR leukemia) was > 100 µM. For the same compound, the TGI (T-47D breast) was > 100 µM and the TGI (TK-10 renal) was > 100 µM.
